In publication PMC10287566, “Signaling-specific inhibition of the CB1 receptor for cannabis use disorder: phase 1 and phase 2a randomized trials” (Nature Medicine, 2023):

Key:
[1] = tested on: DIO mice; test: Food intake and body weight in diet-induced obese mice, repeated treatment; type: in vivo
Protocol: Body weight and food intake were studied because they are reduced by repeated treatment with rimonabant both in mice[31] and in humans. DIO mice were used because the effects of CB1 antagonists are of greater amplitude in obese mice than in lean mice. Male C57BL/6J mice (8 weeks old) were fed ad libitum with a high-fat diet (HFD) for 8 weeks before the start of the pharmacological treatments. During pharmacological treatments, the HFD was maintained, and food intake and body weight were measured daily. The food consumed was calculated by subtracting the food left in the hoppers from the initial pre-weighed amount.

[2] = tested on: mice; test: Precipitated withdrawal in THC-dependent mice; type: in vivo
Protocol: From day 1 to days 4–5, mice were injected i.p. with vehicle or THC (20 mg kg^−1) twice per day. On the last day of treatment, mice in the THC group received rimonabant or AEF0117. All other animals received the respective vehicle. […] For the measure of precipitated withdrawal, mice were placed in a novel home cage, and a video camera was positioned in front of each cage to record behavior. Scoring was performed for 1 min every 5-min period. Two withdrawal signs were analyzed—paw tremors and head shaking—because they are the most common signs of THC withdrawal observed in mice[14].

[3] = tested on: mice; test: Anxiety-related behavior, elevated plus maze, repeated treatment; type: in vivo
Text: (§1) Anxiety-like behaviors were studied in the elevated plus maze (EPM), a rodent model used to evaluate the putative anxiogenic or anxiolytic effects of pharmacological compounds. Depression-related behaviors were studied using the sucrose preference test as a model of anhedonia, one of the cardinal symptoms of depression.
The EPM apparatus comprises four elevated arms arranged in a cross-like shape, with the two opposite arms enclosed by walls and the other two arms open. For all experiments, mice were placed in the center of the EPM and were free to explore the maze for 5 min after receiving the treatment. The time spent and the number of entries into the open and closed arms were measured by an automatic video tracking system (EthoVision XT version 12, Noldus Information Technology). A decrease in the percentage of visits and/or the time spent in open arms is considered an index of increased anxiety.
(§2) The EPM assessment was done on day 26, and the sucrose preference test was done on day 28.

[4] = tested on: mice; test: Depression-related behavior, sucrose preference test, repeated treatment; type: in vivo
Text: as §1
The sucrose preference test was done in the home cage. Two identical bottles, one containing water and the other containing a 2% sucrose solution, were placed in the hopper of each cage. The mice had unlimited access to water and sucrose solutions during the active phase—the dark phase of the light/dark cycle that started at 20:00. The volume of water and of sucrose solution consumed was measured over two […] intervals, the first between 19:00 and 20:30 and the second between 20:30 and 22:00. At each timepoint, the bottles were weighed, and the intake volume was calculated by subtracting the […].
as §2

[5] = tested on: mice; test: Glucocorticoid (corticosterone) secretion in mice; type: in vivo; conditions: glucocorticoid, 10 mg/kg the known ID100
Protocol: Blood sampling was performed 2, 5, 8 and 24 h after dosing (n = 3 per sex per dose per sampling time). For blood sampling, mice were anaesthetized under isoflurane, and blood was collected by cardiac puncture. Blood was centrifuged, and plasma was taken and frozen at −80 °C until quantifications of corticosterone by GC–MS/MS.

[6] = tested on: mice; design: method as in earlier work; conditions: 10 mg/kg, not run in parallel; cited from earlier work

For `Cc1c(C(=O)NN2CCCCC2)nn(-c2ccc(Cl)cc2Cl)c1-c1ccc(Cl)cc1` [rimonabant, Rimonabant], the “body weight in DIO mice vs vehicle” value ([1]; 10 mg/kg) was “decreased”, the “N fold ID100 at highest dose tested” value ([1]; food-intake, 10 mg/kg the known ID100) was 1 and the “Overall effect: inhibition of spontaneous food-intake” value ([1]; mice, highest dose tested 10 mg/kg, run in parallel) was “Yes”. The “Overall effect: precipitated withdrawal in THC-dependent mice” value ([2]; highest dose tested 10 mg/kg, run in parallel) was “Yes”, the “N fold ID100 at highest dose tested” value ([2]; withdrawal, 10 mg/kg the known ID100) was 1 and the “N fold ID100 at highest dose tested” value ([3]; anxiety, 10 mg/kg the known ID100) was 1. For the same compound, the “Overall effect: increase in anxiety-related behaviors” value ([3]; mice, elevated plus maze, highest dose tested 10 mg/kg, run in parallel) was “Yes”, the “N fold ID100 at highest dose tested” value ([4]; depression, 10 mg/kg the known ID100) was 1 and the “Overall effect: increase in depression-related behaviors” value ([4]; mice, sucrose preference test, highest dose tested 10 mg/kg, run in parallel) was “Yes”. The “N fold ID100 at highest dose tested” value [5] was 1 and the “Overall effect: increase in glucocorticoid secretion” value [6] was “Yes”.
